Where two headings read alike, the source gives them in different places.
Tested on: PANC-1 cells
Test: cell viability assay in PANC-1 cells (compound alone, + 100 ng/ml TNFa, + 300 ng/ml TRAIL)
Format: cell-based
[1] = Homo sapiens, PANC-1, compound alone, Tables 6-10, read-out: IC50 (μM) in cell viability assay in PANC-1 cells: Compound alone
[2] = with 100 ng/ml TNFa, Tables 6-10, read-out: IC50 (μM) in cell viability assay in PANC-1 cells: Compound + 100 ng/ml TNFa
[3] = with 300 ng/ml TRAIL, Tables 6-10, read-out: IC50 (μM) in cell viability assay in PANC-1 cells: Compound + 300 ng/ml TRAIL
[4] = Homo sapiens, PANC-1 cells, compound alone, read-out: IC50 (uM) in cell viability assay in PANC-1 cells, Cmpnd alone
[5] = PANC-1 cells, + 100 ng/ml TNFa, read-out: IC50 (uM) in cell viability assay in PANC-1 cells, Cmpnd + 100 ng/ml TNFa
[6] = PANC-1 cells, + 300 ng/ml TRAIL, read-out: IC50 (uM) in cell viability assay in PANC-1 cells, Cmpnd + 300 ng/ml TRAIL
[7] = Homo sapiens, PANC-1, compound alone, Tables 15-18, read-out: IC50 (uM) in cell viability assay in PANC-1 cells: Cmpnd alone
[8] = with 100 ng/ml TNFa, Tables 15-18, read-out: IC50 (uM) in cell viability assay in PANC-1 cells: Cmpnd + 100 ng/ml TNFa
[9] = with 300 ng/ml TRAIL, Tables 15-18, read-out: IC50 (uM) in cell viability assay in PANC-1 cells: Cmpnd + 300 ng/ml TRAIL

## CN[C@@H](C)C(=O)N[C@H](C(=O)N[C@@H](CCNC(=O)c1cccc(C(=O)N[C@H]2C[C@@H](C(=O)N[C@@H]3CCCc4ccccc43)N(C(=O)[C@@H](NC(=O)[C@H](C)NC)C(C)(C)C)C2)c1)C(=O)N[C@H](C)c1ccccc1)C(C)C [Compound 175]
[1]
  IC50: > 1 µM
[2]
  IC50: 0.0163 µM
[3]
  IC50: 0.0357 µM

## CN[C@@H](C)C(=O)N[C@H](C(=O)N1C[C@@H](NC(=O)c2cc(C(=O)N[C@H]3C[C@@H](C(=O)N[C@H](C)c4ccc(Cl)cc4)N(C(=O)[C@@H](NC(=O)[C@H](C)NC)C(C)(C)C)C3)[nH]n2)C[C@H]1C(=O)N[C@H](C)c1ccc(Cl)cc1)C(C)(C)C [Compound P3-108]
[4]
  IC50: > 1 µM
[5]
  IC50: 0.012 µM
[6]
  IC50: 0.036 µM

## CN[C@@H](C)C(=O)N[C@H](C(=O)N1CCC[C@H]1CN1CCC[C@H]1C(c1ccccc1)c1ccccc1)[C@@H](C)OCCCCCCO[C@H](C)[C@H](NC(=O)[C@H](C)NC)C(=O)N1CCC[C@H]1CN1CCC[C@H]1C(c1ccccc1)c1ccccc1 [Compound 83]
[1]
  IC50: > 1 µM
[2]
  IC50: 0.494 µM
[3]
  IC50: 0.437 µM

## CN[C@@H](C)C(=O)N[C@@H](CCCCCC[C@H](NC(=O)[C@H](C)NC)C(=O)N1c2ccccc2C[C@H]1C(=O)N[C@H](C)c1ccccc1)C(=O)N1c2ccccc2C[C@H]1C(=O)N[C@H](C)c1ccccc1 [Compound 92]
[1]
  IC50: > 1 µM
[2]
  IC50: 0.547 µM
[3]
  IC50: 0.798 µM

## CN[C@@H](C)C(=O)N[C@H](C(=O)N1CCC[C@H]1Cn1nnnc1Sc1ccccc1)[C@@H](C)OCC#Cc1cccc(C#CCO[C@@H](C)[C@@H](NC(=O)[C@@H](C)NC)C(=O)N2CCC[C@@H]2Cn2nnnc2Sc2ccccc2)c1 [Compound 116]
[1]
  IC50: > 1 µM
[2]
  IC50: 0.0046 µM
[3]
  IC50: 0.0059 µM

## CN[C@@H](C)C(=O)N[C@H](C(=O)N1CCC[C@H]1Cn1cnnc1CCc1ccccc1)[C@@H](C)OCCCCCCO[C@H](C)[C@H](NC(=O)[C@H](C)NC)C(=O)N1CCC[C@H]1Cn1cnnc1CCc1ccccc1 [Compound 86]
[1]
  IC50: > 1 µM
[2]
  IC50: > 1 µM
[3]
  IC50: > 1 µM

## CN[C@@H](C)C(=O)N[C@H](C(=O)N1CCC[C@H]1Cn1cnnc1CCc1ccccc1)[C@@H](C)OCC#CC#CCO[C@H](C)[C@H](NC(=O)[C@H](C)NC)C(=O)N1CCC[C@H]1Cn1cnnc1CCc1ccccc1 [Compound 85]
[1]
  IC50: > 1 µM
[2]
  IC50: > 1 µM
[3]
  IC50: > 1 µM

## CN[C@@H](C)C(=O)N[C@@H](CC#CC#CC[C@H](NC(=O)[C@H](C)NC)C(=O)N1Cc2ccccc2C[C@H]1C(=O)N[C@H](C)c1ccccc1)C(=O)N1Cc2ccccc2C[C@H]1C(=O)N[C@H](C)c1ccccc1 [Compound 95]
[1]
  IC50: > 1 µM
[2]
  IC50: > 1 µM
[3]
  IC50: > 1 µM

## CN[C@@H](C)C(=O)N[C@H](C(=O)N1C[C@@H](NC(=O)c2cccc(C(=O)N[C@H]3C[C@@H](C(=O)NC4CCCc5ccc([N+](=O)[O-])cc54)N(C(=O)[C@@H](NC(=O)[C@H](C)NC)C(C)(C)C)C3)c2)C[C@H]1C(=O)NC1CCCc2ccc([N+](=O)[O-])cc21)C(C)(C)C (single isomer, unassigned) [Compound 64]
[1]
  IC50: > 1 µM
[2]
  IC50: 0.18 µM
[3]
  IC50: 0.151 µM

## CN[C@@H](C)C(=O)N[C@H](C(=O)N1C[C@@H](NC(=O)c2cccc(C(=O)N[C@H]3C[C@@H](C(=O)N[C@@H]4CCCc5ccc(OC)cc54)N(C(=O)[C@@H](NC(=O)[C@H](C)NC)C(C)(C)C)C3)c2)C[C@H]1C(=O)N[C@@H]1CCCc2ccc(OC)cc21)C(C)(C)C [Compound 44]
[1]
  IC50: > 1 µM
[2]
  IC50: 0.215 µM
[3]
  IC50: 0.198 µM

## CN[C@@H](CO)C(=O)N[C@H](C(=O)N1C[C@@H](NC(=O)c2cc(C(=O)N[C@H]3C[C@@H](C(=O)N[C@H](C)c4ccccc4)N(C(=O)[C@@H](NC(=O)[C@H](CO)NC)C(C)(C)C)C3)[nH]n2)C[C@H]1C(=O)N[C@H](C)c1ccccc1)C(C)(C)C [Compound P3-91]
[4]
  IC50: > 1 µM
[5]
  IC50: 0.152 µM
[6]
  IC50: 0.225 µM

## CN[C@@H](C)C(=O)N[C@H](C(=O)N1C[C@@H](NC(=O)CC[C@@H](NC(=O)[C@H](NC(=O)[C@@H](C)NC)C(C)C)C(=O)N[C@@H](C)C(C)C)C[C@H]1C(=O)N[C@H](C)c1ccccc1)C(C)C [Compound 168]
[1]
  IC50: > 1 µM
[2]
  IC50: > 1 µM
[3]
  IC50: > 1 µM

## CN[C@@H](C)C(=O)N[C@@H](CCC(=O)Nc1cccc(CCc2cccc(NC(=O)CC[C@H](NC(=O)[C@H](C)NC)C(=O)N3CCC[C@H]3C(=O)N[C@@H]3CCCc4ccccc43)c2)c1)C(=O)N1CCC[C@H]1C(=O)N[C@@H]1CCCc2ccccc21 [Compound P2-44]
[7]
  IC50: > 1 µM
[8]
  IC50: 0.017 µM
[9]
  IC50: 0.01 µM

## CC[C@@H](NC(=O)[C@@H]1C[C@H](NC(=O)c2cccc(C(=O)N[C@H]3C[C@@H](C(=O)N[C@H](CC)c4ccccc4)N(C(=O)[C@@H](NC(=O)[C@H](C)NC)C(C)(C)C)C3)c2)CN1C(=O)[C@@H](NC(=O)[C@H](C)NC)C(C)(C)C)c1ccccc1 [Compound 1]
[1]
  IC50: > 1 µM
[2]
  IC50: 0.0023 µM
[3]
  IC50: 0.0019 µM

## CN[C@@H](C)C(=O)N[C@H](C(=O)N1C[C@@H](n2cc(CCC(=O)N[C@@H]3CC(C(=O)N[C@H](C)c4ccccc4)N(C(=O)C(NC(=O)[C@H](CO)NC)C(C)(C)C)C3)nn2)C[C@H]1C(=O)N[C@@H]1CCCc2ccccc21)C(C)(C)C (stereo partly shown) [Compound 205]
[1]
  IC50: > 1 µM
[2]
  IC50: 0.04 µM
[3]
  IC50: 0.059 µM

## CN[C@@H](C)C(=O)N[C@H](C(=O)N[C@@H](CCNC(=O)c1ccc2cc(C(=O)N[C@H]3C[C@@H](C(=O)N[C@@H]4CCCc5ccccc54)N(C(=O)[C@@H](NC(=O)[C@H](C)NC)C(C)(C)C)C3)ccc2c1)C(=O)N[C@H](C)C(C)C)C(C)C [Compound 185]
[1]
  IC50: > 1 µM
[2]
  IC50: 0.008 µM
[3]
  IC50: 0.004 µM

## CN[C@@H](C)C(=O)N[C@H](C(=O)N1CCC[C@H]1CN(CCCCCCN(CCc1ccccc1)C[C@@H]1CCCN1C(=O)[C@@H](NC(=O)[C@H](C)NC)C(C)(C)C)CCc1ccccc1)C(C)(C)C [Compound P4-22]
[7]
  IC50: > 1 µM
[8]
  IC50: 0.022 µM
[9]
  IC50: 0.04 µM

## CC[C@H](NC)C(=O)N[C@H](C(=O)N[C@@H](CCNC(=O)c1ccc2cc(C(=O)N[C@H]3C[C@@H](C(=O)N[C@@H]4CCCc5ccccc54)N(C(=O)[C@@H](NC(=O)[C@H](C)NC)C(C)(C)C)C3)ccc2c1)C(=O)N[C@H](C)C(C)C)C1CCCCC1 [Compound H-11]
[7]
  IC50: > 1 µM

## CN[C@@H](C)C(=O)Nc1nc(CC(=O)NCCCC[C@H](NC(=O)[C@H](C)NC)C(=O)N2CCC[C@H]2C(=O)N[C@@H]2CCCc3ccccc32)cs1 [Compound 189]
[1]
  IC50: > 1 µM
[2]
  IC50: > 1 µM
[3]
  IC50: > 1 µM

## CN[C@@H](C)C(=O)NC(CCC(=O)Nc1ccc(CCc2ccc(NC(=O)CCC(NC(=O)[C@H](C)NC)C(=O)N3CCC[C@H]3C(=O)N[C@@H]3CCCc4ccccc43)cc2)cc1)C(=O)N1CCC[C@H]1C(=O)NC1CCCc2ccccc21 (stereo partly shown) [Compound P2-45]
[7]
  IC50: > 1 µM
[8]
  IC50: 0.002 µM
[9]
  IC50: 0.004 µM

## CN[C@@H](C)C(=O)N[C@H](C(=O)N1C[C@@H](NC(=O)CC[C@@H](NC(=O)[C@H](NC(=O)[C@@H](C)NC)C(C)(C)C)C(=O)N[C@H]2CCCc3ccccc32)C[C@H]1C(=O)N[C@H](C)c1ccccc1)C(C)C [Compound 167]
[1]
  IC50: > 1 µM
[2]
  IC50: 0.06 µM
[3]
  IC50: 0.1 µM

## CN[C@@H](C)C(=O)N[C@H](C(=O)N1C[C@@H](NC(=O)c2cccc(C(=O)N[C@H]3C[C@@H](C(=O)NC4CCCc5c(OC)cccc54)N(C(=O)[C@@H](NC(=O)[C@H](C)NC)C(C)(C)C)C3)c2)C[C@H]1C(=O)NC1CCCc2c(OC)cccc21)C(C)(C)C (single isomer, unassigned) [Compound 46]
[1]
  IC50: > 1 µM
[2]
  IC50: 0.048 µM
[3]
  IC50: 0.014 µM

## CN[C@@H](C)C(=O)N[C@H](C(=O)N1C[C@@H](NC(=O)CCCCCCCCC(=O)N[C@H]2C[C@@H](C(=O)N[C@H](C)c3ccccc3)N(C(=O)[C@@H](NC(=O)[C@H](C)NC)C(C)(C)C)C2)C[C@H]1C(=O)N[C@H](C)c1ccccc1)C(C)(C)C [Compound P3-93]
[4]
  IC50: > 1 µM
[5]
  IC50: 0.012 µM
[6]
  IC50: 0.043 µM

## CNC(C)C(=O)Nc1nc(-c2ccccc2)c(C(=O)NC[C@@H](NC(=O)[C@@H]2CCCN2C(=O)[C@@H](NC(=O)[C@H](C)NC)C(C)(C)C)c2ccccc2)s1 (stereo partly shown) [Compound 192]
[1]
  IC50: > 1 µM
[2]
  IC50: 0.659 µM
[3]
  IC50: > 1 µM

## CN[C@@H](C)C(=O)N[C@@H](CCCCCC[C@H](NC(=O)[C@H](C)NC)C(=O)N1CCC[C@H]1CNC(=O)c1ccccc1O)C(=O)N1CCC[C@H]1CNC(=O)c1ccccc1O [Compound 20]
[1]
  IC50: > 1 µM
[2]
  IC50: > 1 µM
[3]
  IC50: > 1 µM

## CN[C@@H](C)C(=O)N[C@H](C(=O)N[C@@H](CCNC(=O)c1ccc(C#Cc2ccc(C(=O)N[C@H]3C[C@@H](C(=O)N[C@@H]4CCCc5ccccc54)N(C(=O)[C@@H](NC(=O)[C@H](C)NC)C(C)(C)C)C3)cc2)cc1)C(=O)NC(C)C(C)C)C(C)C (stereo partly shown) [Compound 194]
[1]
  IC50: > 1 µM
[2]
  IC50: 0.057 µM
[3]
  IC50: 0.06 µM

## CN[C@@H](C)C(=O)N[C@H](C(=O)N1C[C@@H](NC(=O)c2cccc(C(=O)N[C@H]3C[C@@H](C(=O)NC4CCCc5cccc(F)c54)N(C(=O)[C@@H](NC(=O)[C@H](C)NC)C(C)(C)C)C3)c2)C[C@H]1C(=O)NC1CCCc2cccc(F)c21)C(C)(C)C (single isomer, unassigned) [Compound 71]
Compound alone, Tables 6-10, read-out: IC50 (μM) in cell viability assay in PANC-1 cells: Compound alone
  IC50: > 1 µM
[2]
  IC50: 0.005 µM
[3]
  IC50: 0.0091 µM

Reference: patent publication US20130344026A1, “Dimeric Smac Mimetics” (priority 2009, published 2013)
